According to patent US9693992B2 (MannKind Corporation, priority 2010, dated 2017):

Molecular target: IRE-1α (Homo sapiens (Human), UniProt O75460)
Assay: Cellular EC50: endogenous XBP-1 splicing in myeloma cells (MM.1s, DTT stress, RT-PCR)
Type: cell-based
Conditions: average cellular EC50, XBP-1 splicing in myeloma cells
Procedure: Human myeloma MM.1s cells are incubated with a compound for 1.25 hours before stressing the cells with 2 mM dithiothreitol (DTT). After an additional 45 minutes (2 hours total) with compound and DTT, the cells are harvested with TRIZOL® (a mono-phasic solution of phenol and guanidine isothiocyanate), and total RNA is prepared as directed by the manufacturer (Invitrogen). Human XBP-1 is amplified by RT-PCR with the following primers, which flank the 26 base unconventional intron excised by IRE-1α:
RT-PCR of unstressed (U) cells then generates the upper band. When cells are stressed (S) with the endoplasmic reticulum (ER) stressing agent DTT, IRE-1α is activated due to accumulating unfolded protein and the resulting RT-PCR product is 26 base pairs shorter.
Compounds which pass specificity assays are assayed for cellular EC50 using endogenous XBP-1 splicing in myeloma cells. XBP-1 is regulated through the excision of a 26 nucleotide intron from the XBP-1 mRNA by the highly specific endoribonuclease activity of IRE-1α. […] This splicing event is used to measure IRE-1α activity on XBP-1 mRNA in cells and tissues.
Briefly, compounds are incubated in the presence or absence of an ER stress agent (e.g., DTT), and the ratio of XBP-1u (unspliced) to XBP-1s (spliced) is quantified by RT-PCR. The ED50 is determined as the 50% XBP-1s to total XPB-1 levels.

Chain of IRE-1α (O75460 19-977): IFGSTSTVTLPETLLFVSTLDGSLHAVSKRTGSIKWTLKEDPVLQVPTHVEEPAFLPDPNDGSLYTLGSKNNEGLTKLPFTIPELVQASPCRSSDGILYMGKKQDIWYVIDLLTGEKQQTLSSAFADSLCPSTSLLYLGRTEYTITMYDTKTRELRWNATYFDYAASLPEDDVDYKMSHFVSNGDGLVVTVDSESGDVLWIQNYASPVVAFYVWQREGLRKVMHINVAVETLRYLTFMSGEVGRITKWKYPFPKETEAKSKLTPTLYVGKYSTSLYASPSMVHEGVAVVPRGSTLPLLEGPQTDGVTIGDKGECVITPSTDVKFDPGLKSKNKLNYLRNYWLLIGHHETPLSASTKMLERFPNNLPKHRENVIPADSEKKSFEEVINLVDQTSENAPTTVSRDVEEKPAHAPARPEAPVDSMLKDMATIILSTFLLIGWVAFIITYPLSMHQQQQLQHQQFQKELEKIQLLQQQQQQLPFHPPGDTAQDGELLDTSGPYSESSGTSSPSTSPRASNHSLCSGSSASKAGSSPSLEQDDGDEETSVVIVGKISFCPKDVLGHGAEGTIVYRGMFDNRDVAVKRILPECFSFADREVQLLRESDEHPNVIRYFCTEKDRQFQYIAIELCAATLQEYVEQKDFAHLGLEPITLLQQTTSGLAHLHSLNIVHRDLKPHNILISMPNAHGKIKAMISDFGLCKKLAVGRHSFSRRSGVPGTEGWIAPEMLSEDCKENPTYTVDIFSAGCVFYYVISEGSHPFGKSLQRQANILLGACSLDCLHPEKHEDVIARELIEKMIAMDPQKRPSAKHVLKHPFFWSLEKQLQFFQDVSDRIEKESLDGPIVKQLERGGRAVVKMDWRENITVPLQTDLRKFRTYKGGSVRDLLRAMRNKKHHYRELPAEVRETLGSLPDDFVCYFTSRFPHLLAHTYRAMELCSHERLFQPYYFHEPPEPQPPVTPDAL

| SMILES | EC50 [µM] |
| --- | --- |
| Cc1c(-c2ccc(C(=O)NCCN3CCOCC3)cc2)c(=O)oc2c(C=O)c(O)ccc12 [Example 3] | < 10 |
| CC(C)c1cc(=O)oc2c(C=O)c(O)ccc12 [Example 5] | < 10 |
| O=Cc1c(O)ccc2cc(C(=O)O)c(=O)oc12 [Example 8] | > 10 |
| Cc1c(-c2cccc(C(=O)N3CCN(C)CC3)c2)c(=O)oc2c(C=O)c(O)ccc12 [Example 10] | < 10 |
| Cc1c(-c2cccc(C(=O)NCCN3CCOCC3)c2)c(=O)oc2c(C=O)c(O)ccc12 [Example 11] | < 10 |
| Cc1c(-c2ccc(C(=O)N3CCOCC3)cc2)c(=O)oc2c(C=O)c(O)ccc12 [Example 12] | < 10 |
| Cc1c(-c2ccc(N3CCN(C)CC3)nc2)c(=O)oc2c(C=O)c(O)ccc12 [Example 14] | < 10 |
| Cc1c(CCC(=O)N2CCN(C)CC2)c(=O)oc2c(C=O)c(O)ccc12 [Example 15] | < 10 |
| Cc1c(-c2ccc(C(=O)N(C)C)cc2)c(=O)oc2c(C=O)c(O)ccc12 [Example 17] | < 10 |
| Cc1c(-c2cccc(C(=O)N(C)C)c2)c(=O)oc2c(C=O)c(O)ccc12 [Example 20] | > 10 |
| Cc1cc(=O)oc2c(C=O)c(O)c(Cl)cc12 [Example 22] | < 10 |
| O=Cc1c(O)ccc2c1CCN(Cc1ccccc1)C2 [Example 28] | > 10 |
| CN1CCN(C(=O)c2cnc(N3CCc4c(ccc(O)c4C=O)C3)s2)CC1 [Example 33] | > 10 |
| Cc1nc(N2CCc3c(ccc(O)c3C=O)C2)sc1C(=O)NC1CCNCC1 [Example 35] | > 10 |
| Cc1nc(N2CCc3c(ccc(O)c3C=O)C2)sc1C(=O)NC1CCN(C)CC1 [Example 36] | > 10 |
| Cc1nc(N2CCc3c(ccc(O)c3C=O)C2)sc1C(=O)NCCN1CCOCC1 [Example 37] | > 10 |
| CN1CCN(c2ncc(C(=O)N3CCc4c(ccc(O)c4C=O)C3)s2)CC1 [Example 38] | > 10 |
| CCc1cc2c(=O)c(-c3nc(C)cs3)coc2c(C=O)c1O [Example 39] | > 10 |
| O=Cc1c(O)ccc2c(=O)c(-c3cnn(-c4ccccc4)c3)coc12 [Example 40] | > 10 |
| CN1CCN(C(=O)c2ccc(-c3ccc4c(C=O)c(O)ccc4n3)cc2)CC1 [Example 41] | < 10 |
| CN1CCN(C(=O)c2cccc(-c3ccc4c(C=O)c(O)ccc4n3)c2)CC1 [Example 42] | < 10 |

| SMILES | EC50 [µM] |
| --- | --- |
| O=Cc1c(O)ccc2nc(-c3ccc(C(=O)N4CCOCC4)cc3)ccc12 [Example 44] | < 10 |
| O=Cc1c(O)ccc2nc(-c3ccc(C(=O)NCCN4CCOCC4)cc3)ccc12 [Example 45] | < 10 |
| O=Cc1c(O)ccc2nc(-c3cccc(C(=O)NCCN4CCOCC4)c3)ccc12 [Example 46] | < 10 |
| O=Cc1c(O)ccc2nc(SCC(=O)O)[nH]c12 [Example 63] | > 10 |
| O=Cc1c(O)ccc2nc(-c3cccc(C(=O)O)c3)[nH]c12 [Example 64] | > 10 |
| COC(=O)c1cccc(-c2nc3ccc(O)c(C=O)c3[nH]2)c1 [Example 65] | < 10 |
| Cc1c(-c2ccc(C(=O)N3CCOCC3)cc2)c(=O)oc2c(C=O)c(O)c(Cl)cc12 [Example 67] | > 10 |
| CCOC(=O)c1sc(-c2cc3ccc(O)c(C=O)c3oc2=O)nc1C [Example 68] | < 10 |
| Cc1c(CC(=O)O)c(=O)oc2c(C=O)c(O)ccc12 [Example 70] | > 10 |
| Cc1oc2c(C=O)c(O)ccc2c(=O)c1CCC(=O)N1CCN(C)CC1 [Example 88] | > 10 |
| COc1cc2c(=O)c(CCC(=O)NCCN3CCOCC3)c(C)oc2c(C=O)c1O [Example 93] | > 10 |
| COc1cc2c(=O)c(CCC(=O)N3CCN(C)CC3)c(C)oc2c(C=O)c1O [Example 94] | > 10 |
| CCOC(=O)c1cnc(-c2cc3ccc(O)c(C=O)c3oc2=O)s1 [Example 106] | < 10 |
| CN1CCN(C(=O)c2cnc(-c3cc4ccc(O)c(C=O)c4oc3=O)s2)CC1 [Example 107] | < 10 |
| Cc1nc(-c2cc3ccc(O)c(C=O)c3oc2=O)sc1C(=O)N1CCN(C)CC1 [Example 108] | < 10 |
| Cc1nc(-c2cc3ccc(O)c(C=O)c3oc2=O)sc1C(=O)NCCN1CCOCC1 [Example 109] | < 10 |
| Cc1nc(-c2c(C)c3ccc(O)c(C=O)c3oc2=O)sc1C(=O)N1CCN(C)CC1 [Example 110] | < 10 |
| COc1cc2c(C)c(-c3ccc(C(=O)N4CCN(C)CC4)cc3)c(=O)oc2c(C=O)c1O [Example 111] | < 10 |
| Cc1c(/C=C/C(=O)N2CCN(C)CC2)c(=O)oc2c(C=O)c(O)ccc12 [Example 112] | < 10 |
| COc1cc2c(C)c(-c3ccc(N4CCN(C)CC4)nc3)c(=O)oc2c(C=O)c1O [Example 113] | < 10 |
